According to patent US10689339B2, “Pyrrolidine derivatives” (Hoffmann-La Roche Inc., priority 2016, dated 2020):

Molecular target: human Cat S (Homo sapiens (Human), UniProt P25774)
Assay: Cathepsin enzyme inhibition assay (fluorogenic peptide substrate Z-Val-Val-Arg-AMC)
Assay type: biochemical
Conditions: enzyme 1 nM, substrate 20 μM, pH 6.5
Procedure: Cathepsin Enzyme Inhibition Assay
Enzyme activity is measured by observing the increase in fluorescence intensity caused by cleavage of a peptide substrate containing a fluorophore whose emission is quenched in the intact peptide.
Assay buffer: 100 mM potassium phosphate pH 6.5, EDTA-Na 5 mM, Triton X-100 0.001%, DTT 5 mM.
Enzymes (all at 1 nM): human and mouse Cathepsin S, Cat K, Cat B, Cat L.
Substrate (20 μM): Z-Val-Val-Arg-AMC, except for Cat K which uses Z-Leu-Arg-AMC (both from Bachem).
AMC=7-Amino-4-Methyl-Coumarin.
Excitation 360 nm, Emission 465 nm.
Enzyme is added to the substance dilutions in 96-well microtitre plates and the reaction is started with substrate. […] IC50 are calculated by standard methods.
Inhibition of human Cat S, mouse Cat S, human Cat K, human Cat B, human Cat L and mouse Cat L have been measured separately.

human Cat S, sequence (P25774 115-331): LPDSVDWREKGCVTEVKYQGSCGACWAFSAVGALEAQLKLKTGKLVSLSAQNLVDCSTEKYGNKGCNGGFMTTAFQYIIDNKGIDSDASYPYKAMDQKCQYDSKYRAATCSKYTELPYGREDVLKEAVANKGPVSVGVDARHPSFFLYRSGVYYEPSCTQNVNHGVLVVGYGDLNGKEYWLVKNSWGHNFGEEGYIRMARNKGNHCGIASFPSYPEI

SMILES	IC50 [nM]
N#CC1(NC(=O)[C@@H]2C[C@@H](S(=O)(=O)c3ccc(-n4ccnn4)cc3)CN2C(=O)C2(C(F)(F)F)CC2)CC1 [Example 34, (2S,4R)-4-(4-(1H-1,2,3-triazol-1-yl)phenylsulfonyl)-N-(1-cyanocyclopropyl)-1-(1-(trifluoromethyl)cyclopropanecarbonyl)pyrrolidine-2-carboxamide]	1.06
N#CC1(NC(=O)[C@@H]2C[C@@H](S(=O)(=O)c3ccc(-n4ccc(C(F)(F)F)n4)cc3)CN2C(=O)C2(C(F)(F)F)CC2)CC1 [Example 35, (2S,4R)—N-(1-cyanocyclopropyl)-4-(4-(3-(trifluoromethyl)-1H-pyrazol-1-yl)phenylsulfonyl)-1-(1-(trifluoromethyl)cyclopropanecarbonyl)pyrrolidine-2-carboxamide]	1.02
N#CC1(NC(=O)[C@@H]2C[C@@H](S(=O)(=O)c3ccc(-c4ccccc4C=O)cc3)CN2C(=O)C2(C(F)(F)F)CC2)CC1 [Example 37, (2S,4R)—N-(1-cyanocyclopropyl)-4-(2′-formylbiphenyl-4-ylsulfonyl)-1-(1-(trifluoromethyl)cyclopropanecarbonyl)pyrrolidine-2-carboxamide]	1.89
CCOc1ccccc1-c1ccc(S(=O)(=O)[C@@H]2C[C@@H](C(=O)NC3(C#N)CC3)N(C(=O)C3(C(F)(F)F)CC3)C2)cc1 [Example 38, (2S,4R)—N-(1-cyanocyclopropyl)-4-(2′-ethoxybiphenyl-4-ylsulfonyl)-1-(1-(trifluoromethyl)cyclopropanecarbonyl)pyrrolidine-2-carboxamide]	3.21
N#CC1(NC(=O)[C@@H]2C[C@@H](S(=O)(=O)c3ccc(-c4cnc(N)nc4)cc3)CN2C(=O)C2(C(F)(F)F)CC2)CC1 [Example 39, (2S,4R)-4-(4-(2-aminopyrimidin-5-yl)phenylsulfonyl)-N-(1-cyanocyclopropyl)-1-(1-(trifluoromethyl)cyclopropanecarbonyl)pyrrolidine-2-carboxamide]	0.483
CCOc1ccccc1-c1ccc(S(=O)(=O)[C@@H]2C[C@@H](C(=O)NC3(C#N)CC3)N(C(=O)C3(C(F)(F)F)CC3)C2)c(C)c1 [Example 40, (2S,4R)—N-(1-cyanocyclopropyl)-4-(2′-ethoxy-3-methylbiphenyl-4-ylsulfonyl)-1-(1-(trifluoromethyl)cyclopropanecarbonyl)pyrrolidine-2-carboxamide]	1.21
CCOc1cc(F)c(F)cc1-c1ccc(S(=O)(=O)[C@@H]2C[C@@H](C(=O)NC3(C#N)CC3)N(C(=O)C3(C(F)(F)F)CC3)C2)c(C)c1 [Example 42, (2S,4R)—N-(1-cyanocyclopropyl)-4-(2′-ethoxy-4′,5′-difluoro-3-methylbiphenyl-4-ylsulfonyl)-1-(1-(trifluoromethyl)cyclopropanecarbonyl)pyrrolidine-2-carboxamide]	1.46
N#CC1(NC(=O)[C@@H]2C[C@@H](S(=O)(=O)c3ccc(-c4ccccc4CO)cc3)CN2C(=O)C2(C(F)(F)F)CC2)CC1 [Example 43, (2S,4R)—N-(1-cyanocyclopropyl)-4-(2′-(hydroxymethyl)biphenyl-4-ylsulfonyl)-1-(1-(trifluoromethyl)cyclopropanecarbonyl)pyrrolidine-2-carboxamide]	3.57
N#CC1(NC(=O)[C@@H]2C[C@@H](S(=O)(=O)c3ccc(-c4ccc5c(c4)OC(F)(F)O5)cc3C(F)(F)F)CN2C(=O)C2(C(F)(F)F)CC2)CC1 [Example 45, (2S,4R)-4-[4-(2,2-Difluoro-benzo[1,3]dioxol-5-yl)-2-trifluoromethyl-benzenesulfonyl]-1-(1-trifluoromethyl-cyclopropanecarbonyl)-pyrrolidine-2-carboxylic acid (1-cyano-cyclopropyl)-amide]	1.07
Cc1nc(C)c(-c2ccc(S(=O)(=O)[C@@H]3C[C@@H](C(=O)NC4(C#N)CC4)N(C(=O)C4(C(F)(F)F)CC4)C3)c(C(F)(F)F)c2)s1 [Example 48, (2S,4R)-4-[4-(2,4-Dimethyl-thiazol-5-yl)-2-trifluoromethyl-benzenesulfonyl]-1-(1-trifluoromethyl-cyclopropanecarbonyl)-pyrrolidine-2-carboxylic acid (1-cyano-cyclopropyl)-amide]	1.17
Cc1nc(C)c(-c2ccc(S(=O)(=O)[C@@H]3C[C@@H](C(=O)NC4(C#N)CC4)N(C(=O)C4(C(F)(F)F)CC4)C3)cc2)s1 [Example 49, (2S,4R)—N-(1-cyanocyclopropyl)-4-(4-(2,4-dimethylthiazol-5-yl)phenylsulfonyl)-1-(1-(trifluoromethyl)cyclopropanecarbonyl)pyrrolidine-2-carboxamide]	0.909
COc1ncc(-c2ccc(S(=O)(=O)[C@@H]3C[C@@H](C(=O)NC4(C#N)CC4)N(C(=O)C4(C(F)(F)F)CC4)C3)cc2)cn1 [Example 51, (2S,4R)—N-(1-cyanocyclopropyl)-4-(4-(2-methoxypyrimidin-5-yl)phenylsulfonyl)-1-(1-(trifluoromethyl)cyclopropanecarbonyl)pyrrolidine-2-carboxamide]	0.882
Cc1noc(C)c1-c1ccc(S(=O)(=O)[C@@H]2C[C@@H](C(=O)NC3(C#N)CC3)N(C(=O)C3(C(F)(F)F)CC3)C2)cc1 [Example 55, (2S,4R)—N-(1-cyanocyclopropyl)-4-(4-(3,5-dimethylisoxazol-4-yl)phenylsulfonyl)-1-(1-(trifluoromethyl)cyclopropanecarbonyl)pyrrolidine-2-carboxamide]	1.44
N#CC1(NC(=O)[C@@H]2C[C@@H](S(=O)(=O)c3ccc(-c4cnn(C(F)F)c4)cc3C(F)(F)F)CN2C(=O)C2(C(F)(F)F)CC2)CC1 [Example 56, (2S,4R)-4-[4-(1-Difluoromethyl-1Hpyrazol-4-yl)-2-trifluoromethyl-benzenesulfonyl]-1-(1-trifluoromethyl-cyclopropanecarbonyl)-pyrrolidine-2-carboxylic acid (1-cyano-cyclopropyl)-amide]	0.526
N#CC1(NC(=O)[C@@H]2C[C@@H](S(=O)(=O)c3ccc(-c4c[nH]nc4C(F)(F)F)cc3C(F)(F)F)CN2C(=O)C2(C(F)(F)F)CC2)CC1 [Example 58, (2S,4R)-1-(1-Trifluoromethyl-cyclopropanecarbonyl)-4-[2-trifluoromethyl-4-(3-trifluoromethyl-1Hpyrazol-4-yl)-benzenesulfonyl]-pyrrolidine-2-carboxylic acid (1-cyano-cyclopropyl)-amide]	2.42

Continued, values first:

IC50 [nM]	SMILES
2.6	Cc1cc(C(F)(F)F)nn1-c1ccc(S(=O)(=O)[C@@H]2C[C@@H](C(=O)NC3(C#N)CC3)N(C(=O)C3(C(F)(F)F)CC3)C2)cc1 [Example 36, (2S,4R)—N-(1-cyanocyclopropyl)-4-(4-(5-methyl-3-(trifluoromethyl)-1H-pyrazol-1-yl)phenylsulfonyl)-1-(1-(trifluoromethyl)cyclopropanecarbonyl)pyrrolidine-2-carboxamide]
0.86	Cc1cc(-c2ccccc2C#N)ccc1S(=O)(=O)[C@@H]1C[C@@H](C(=O)NC2(C#N)CC2)N(C(=O)C2(C(F)(F)F)CC2)C1 [Example 41, (2S,4R)-4-(2′-cyano-3-methylbiphenyl-4-ylsulfonyl)-N-(1-cyanocyclopropyl)-1-(1-(trifluoromethyl)cyclopropanecarbonyl)pyrrolidine-2-carboxamide]
0.51	Cc1cc(-c2cnc(N)nc2)ccc1S(=O)(=O)[C@@H]1C[C@@H](C(=O)NC2(C#N)CC2)N(C(=O)C2(C(F)(F)F)CC2)C1 [Example 44, (2S,4R)-4-(4-(2-aminopyrimidin-5-yl)-2-methylphenylsulfonyl)-N-(1-cyanocyclopropyl)-1-(1-(trifluoromethyl)cyclopropanecarbonyl)pyrrolidine-2-carboxamide]
0.728	Cc1ncc(-c2ccc(S(=O)(=O)[C@@H]3C[C@@H](C(=O)NC4(C#N)CC4)N(C(=O)C4(C(F)(F)F)CC4)C3)cc2)s1 [Example 50, (2S,4R)—N-(1-cyanocyclopropyl)-4-(4-(2-methylthiazol-5-yl)phenylsulfonyl)-1-(1-(trifluoromethyl)cyclopropanecarbonyl)pyrrolidine-2-carboxamide]
0.486	Cc1ncnn1-c1ccc(S(=O)(=O)[C@@H]2C[C@@H](C(=O)NC3(C#N)CC3)N(C(=O)C3(C(F)(F)F)CC3)C2)c(Cl)c1 [Example 52, (2S,4R)-4-(2-chloro-4-(5-methyl-1H-1,2,4-triazol-1-yl)phenylsulfonyl)-N-(1-cyanocyclopropyl)-1-(1-(trifluoromethyl)cyclopropanecarbonyl)pyrrolidine-2-carboxamide]
0.382	N#CC1(NC(=O)[C@@H]2C[C@@H](S(=O)(=O)c3ccc(-n4ccnn4)cc3C(F)(F)F)CN2C(=O)C2(C(F)(F)F)CC2)CC1 [Example 54, (2S,4R)-4-(4-[1,2,3]Triazol-1-yl-2-trifluoromethyl-benzenesulfonyl)-1-(1-trifluoromethyl-cyclopropanecarbonyl)-pyrrolidine-2-carboxylic acid (1-cyano-cyclopropyl)-amide]
0.564	Cc1nnn(-c2ccc(S(=O)(=O)[C@@H]3C[C@@H](C(=O)NC4(C#N)CC4)N(C(=O)C4(C(F)(F)F)CC4)C3)c(C(F)(F)F)c2)n1 [Example 57, (2S,4R)-4-[4-(5-Methyl-tetrazol-2-yl)-2-trifluoromethyl-benzenesulfonyl]-1-(1-trifluoromethyl-cyclopropanecarbonyl)-pyrrolidine-2-carboxylic acid (1-cyano-cyclopropyl)-amide]
0.943	Cc1cc(-c2ccccc2CO)ccc1S(=O)(=O)[C@@H]1C[C@@H](C(=O)NC2(C#N)CC2)N(C(=O)C2(C(F)(F)F)CC2)C1 [Example 59, (2S,4R)—N-(1-cyanocyclopropyl)-4-(2′-(hydroxymethyl)-3-methylbiphenyl-4-ylsulfonyl)-1-(1-(trifluoromethyl)cyclopropanecarbonyl)pyrrolidine-2-carboxamide]
